pIC50, pKd: −log10 of the molar value. Read-outs that look alike come from different tables or passages of the source.
How the values were obtained:
hPD-1/hPD-L1 interaction = hPD-1/hPD-L1 interaction (Homo sapiens (Human), UniProt Q9NZQ7); settings: read-out: PD-1/PD-L1 IC50
Fc-hPD-L1 protein = Fc-hPD-L1 protein (Homo sapiens (Human), UniProt Q9NZQ7); format: binding
C57BL/6 mice [1] = assay: Acute toxicity test, intraperitoneal injection; settings: 125 mg/kg
[2] = system: MC38-hPDL1 colon cancer cells; design: species or system mice; settings: mouse, in vivo
C57BL/6 mice [3] = settings: mouse, in vivo

Fc-hPD-L1 protein, sequence (Q9NZQ7 19-238 limits assumed): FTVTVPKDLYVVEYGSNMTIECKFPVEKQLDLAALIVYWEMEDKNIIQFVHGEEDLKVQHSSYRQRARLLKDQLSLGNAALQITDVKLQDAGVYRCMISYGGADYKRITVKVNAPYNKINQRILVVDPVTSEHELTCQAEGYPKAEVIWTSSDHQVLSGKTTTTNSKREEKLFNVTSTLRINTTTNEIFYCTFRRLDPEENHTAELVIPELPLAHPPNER
hPD-1/hPD-L1 interaction, sequence (Q9NZQ7 19-238): as the sequence (Q9NZQ7 19-238 limits assumed) above

“(4-((3′-(3-(4-(((1-carboxy-2-hydroxyethyl)amino)methyl)-1H-1,2,3-triazol-1-)propoxy)-2,2′-d imethyl-[1,1′-biphenyl]-3-yl)methoxy)-5-chloro-2-methoxybenzyl)serine [II-7]” showed a pIC50 (hPD-1/hPD-L1 interaction) of 8.00 to 10.00 and a pKd (Fc-hPD-L1 protein) of 7.00 to 10.00.

With “(4-((3′-(2-(4-(((1-carboxy-2-hydroxyethyl)amino)methyl)-1H-1,2,3-triazol-1-)ethyl oxy)-2,2′-dimethyl-[1,1′-biphenyl]-3-)methoxy)-5-chloro-2-((5-cyanopyridin-3-)methoxy)ben zyl)serine [II-6]” the pIC50 (hPD-1/hPD-L1 interaction) was 6.00 to 7.00.

In the case of COc1nc(OCc2cccc(-c3ccccc3)c2C)ccc1CNCCNC(C)=O [BMS-202], the body weight (C57BL/6 mice [1]) was “decreased significantly” and the “state of mice (clinical signs)” value (C57BL/6 mice [1]) was “obvious signs of convulsions and tremors”.

“(4-((3′-(3-(4-(((carboxymethyl)amino)methyl)-1H-1,2,3-triazol-1-)propoxy)-2,2′-dimethyl-[1,1′-biphenyl]-3-)methoxy)-5-chloro-2-((5-cyanopyridin-3-)methoxy)benzyl) glycine [II-5]” showed a pIC50 (hPD-1/hPD-L1 interaction) of 8.00 to 10.00 and a pKd (Fc-hPD-L1 protein) of 7.00 to 10.00.

For COc1cc(OCc2cccc(-c3cccc(OCCCn4cc(CNCCC(=O)O)nn4)c3C)c2C)c(Cl)cc1CNCCC(=O)O [II-12, 3-((4-((3′-(3-(4-(((2-carboxyethyl)amino)methyl)-1H-1,2,3-triazol-1-)propoxyl)-2,2′-dimethyl-[1,1′-biphenyl]-3-)methoxy)-5-chloro-2-methoxybenzyl)amino)propionic acid], the pIC50 (hPD-1/hPD-L1 interaction) was 8.00 to 10.00 and the pKd (Fc-hPD-L1 protein) was 7.00 to 10.00.

In the case of COc1cc(OCc2cccc(-c3cccc(OCCCn4cc(CN5CC[C@@H](O)C5)nn4)c3C)c2C)c(Cl)cc1CN1CC[C@@H](O)C1 [II-11, (R)-1-((1-(3-((3′-((2-chloro-4-(((R)-3-hydroxypyrrolidin-1-yl)methyl)-5-methoxyphenoxy)methyl)-2,2′-dimethyl-[1,1′-biphenyl]-3-)oxy)propyl)-1H-1,2,3-triazol-4-)methyl)py rrolidin-3-ol], the pIC50 (hPD-1/hPD-L1 interaction) was 7.00 to 8.00 and the pKd (Fc-hPD-L1 protein) was 7.00 to 10.00.

For COc1cc(OCc2cccc(-c3cccc(OCCCn4cc(CNC(C)C(=O)O)nn4)c3C)c2C)c(Cl)cc1CN[C@@H](C)C(=O)O (stereo partly drawn) [II-15, (4-((3′-(3-(4-(((1-carboxyethyl)amino)methyl)-1H-1,2,3-triazol-1-yl)propoxy)-2 ,2′-dimethyl-[1,1′-biphenyl]-3-)methoxy)-5-chloro-2-methoxybenzyl)alanine], the pIC50 (hPD-1/hPD-L1 interaction) was 8.00 to 10.00.

In the case of “(4-((3′-(3-(4-(((1-carboxy-2-hydroxyethyl)amino)methyl)-1H-1,2,3-triazol-1-)propoxyl)-2,2′-dichloro-[1,1′-biphenyl]-3-)methoxy)-5-chloro-2-((5-cyanopyridin-3-)methoxy)benzyl)serine [II-16]”, the pIC50 (hPD-1/hPD-L1 interaction) was 7.00 to 8.00.

In the case of COc1cc(OCc2cccc(-c3cccc(OCCCn4cc(CN5CCCC5C(N)=O)nn4)c3C)c2C)c(Cl)cc1CN1CCCC1C(N)=O (stereo not drawn) [II-8, 1-(4-((3′-(3-(4-((2-carbamoylpyrrolidin-1-)methyl)-1H-1,2,3-triazol-1-) Propoxy)-2,2′-dimethyl-[1,1′-biphenyl]-3-)methoxy)-5-chloro-2-methoxybenzyl)pyrrolidine-2-formamide], the pIC50 (hPD-1/hPD-L1 interaction) was 7.00 to 8.00 and the pKd (Fc-hPD-L1 protein) was 7.00 to 10.00.

COc1cc(OCc2cccc(-c3cccc(OCCCn4cc(CNCCO)nn4)c3C)c2C)c(Cl)cc1CNCCO [II-9] gave a pIC50 (hPD-1/hPD-L1 interaction) of 8.00 to 10.00 and a pKd (Fc-hPD-L1 protein) of 7.00 to 10.00.

COC(=O)[C@@H](CO)NCc1cn(CCCOc2cccc(-c3cccc(COc4cc(OCc5cncc(C#N)c5)c(CN[C@H](CO)C(=O)OC)cc4Cl)c3C)c2C)nn1 [II-19, (5-chloro-2-((5-cyanopyridin-3-)methoxy)-4-((3′-(3-(4-((((R)-1-methoxy-3-hydroxy-1-oxopropan-2-)amino)methyl)-1H-1,2,3-triazol-1-)propoxy)-2,2′-dimethyl-[1,1′-biphenyl]-3-)methoxy)benzyl)-D-serine methyl ester] gave a pIC50 (hPD-1/hPD-L1 interaction) of 7.00 to 8.00 and a pKd (Fc-hPD-L1 protein) of 6.00 to 7.00.

In the case of CCOC(=O)[C@@H](CO)NCc1cn(CCCOc2cccc(-c3cccc(COc4cc(OC)c(CN[C@H](CO)C(=O)OCC)cc4Cl)c3C)c2C)nn1 [II-21, ((1-(3-((3′-((2-chloro-4-((((R)1-ethoxy-3-hydroxy-1-oxopropan-2-)amino)methyl)-5-methoxyphenoxy)methyl)-2,2′-dimethyl-[1,1′-biphenyl]-3-)oxy)propyl)-1H-1,2,3-triazol-4-)methyl)-D-serine ethyl ester], the pIC50 (hPD-1/hPD-L1 interaction) was 7.00 to 8.00 and the pKd (Fc-hPD-L1 protein) was 6.00 to 7.00.

With Cc1c(COc2cc(OCc3cncc(C#N)c3)c(CN[C@@H](CO)C(=O)O)cc2Cl)cccc1-c1cccc(OCCCn2cc(CNC(CO)C(=O)O)nn2)c1C (stereo partly drawn) [II-1, (4-((3′-(3-(4-(((1-carboxy-2-hydroxyethyl)amino)methyl)-1H-1,2,3-triazole-1-)propaneoxy)-2,2′-dimethyl-[1,1′-biphenyl]-3-)methoxy)-5-chloro-2-((5-cyanopyridin-3-)methoxy)benzyl)serine] the “inhibitory effect on tumor growth” value [2] was “weak inhibitory effect on tumor growth”, the “proliferation of CD3+CD4+T cell” value [2] was “can promote the proliferation” and the “proliferation of CD3+CD8+T cell” value [2] was “can promote the proliferation”. The “relative tumor inhibition rate” value [2] was 45.8%, the tumor weight [2] was “excellent anti-tumor effect” and the pIC50 (hPD-1/hPD-L1 interaction) was 8.00 to 10.00. For the same compound, the body weight (C57BL/6 mice [3]) was “nor did their body weight decrease” and the pKd (Fc-hPD-L1 protein) was 7.00 to 10.00.

“5-((4-chloro-2-(((2-hydroxyethyl)amino)methyl)-5-((3′-(3-(4-(((2-hydroxyethyl)amino)methy 1 Base)-1H-1,2,3-triazol-1-)propoxy)-2,2′-dimethyl-[1,1′-biphenyl]-3-)methoxy) phenoxy) methyl)nicotinonitrile [II-2]” gave a pIC50 (hPD-1/hPD-L1 interaction) of 7.00 to 8.00.

In the case of CCOC(=O)[C@@H](CO)NCc1cn(CCCOc2cccc(-c3cccc(COc4cc(OCc5cncc(C#N)c5)c(CN[C@H](CO)C(=O)OCC)cc4Cl)c3C)c2C)nn1 [II-18, (5-chloro-2-((5-cyanopyridin-3-)methoxy)-4-((3′-(3-(4-((((R)-1-ethoxy-3-hydroxy-1-oxopropan-2-)amino)methyl)-1H-1,2,3-triazol-1-)propoxy)-2,2′-dimethyl-[1,1′-biphenyl]-3-)methoxy)benzyl)-D-serine ethyl ester], the “proliferation of CD3+CD4+T cell” value [2] was “can promote the proliferation”, the “proliferation of CD3+CD8+T cell” value [2] was “can promote the proliferation” and the “relative tumor inhibition rate” value [2] was 49.6%. The tumor weight [2] was “excellent anti-tumor effect”, the pIC50 (hPD-1/hPD-L1 interaction) was 7.00 to 8.00 and the body weight (C57BL/6 mice [3]) was “nor did their body weight decrease”. For the same compound, the pKd (Fc-hPD-L1 protein) was 6.00 to 7.00.

Work on COc1cc(OCc2cccc(-c3cccc(OCCCn4cc(CNCCNC(C)=O)nn4)c3C)c2C)c(Cl)cc1CNCCNC(C)=O [II-10, N-(2-((4-((3′-(3-(4-(((2-acetylaminoethyl)amino)methyl)-1H-1,2,3-triazole-1-)propoxy)-2,2′-dimethyl-[1,1′-biphenyl]-3-)methoxy)-5-chloro-2-methoxybenzyl)amino)ethyl)acetamide] yielded a pIC50 (hPD-1/hPD-L1 interaction) of 7.00 to 8.00.

CCOC(=O)CNCc1cn(CCCOc2cccc(-c3cccc(COc4cc(OCc5cncc(C#N)c5)c(CNCC(=O)OCC)cc4Cl)c3C)c2C)nn1 [II-20, (5-chloro-2-((5-cyanopyridin-3-yl)methoxy)-4-((3′-(3-(4-(((2-ethoxy-2-oxoethyl)amino)methyl)-1H-1,2,3-triazol-1-)propoxy)-2,2′-dimethyl-[1,1′-biphenyl]-3-)methoxy)benzyl)glycine ethyl ester] gave a pIC50 (hPD-1/hPD-L1 interaction) of 7.00 to 8.00 and a pKd (Fc-hPD-L1 protein) of 6.00 to 7.00.

With COc1cc(OCc2cccc(-c3cccc(OCCCn4cc(CN5CCCCC5C(=O)O)nn4)c3C)c2C)c(Cl)cc1CN1CCCCC1C(=O)O (stereo not drawn) [II-13] the pIC50 (hPD-1/hPD-L1 interaction) was 8.00 to 10.00.

“1-(4-((3′-(3-(4-((2-carbamoylpyrrolidin-1-)methyl)-1H-1,2,3-triazol-1-) Propoxy)-2,2′-dimethyl-[1,1′-biphenyl]-3-methoxy)-5-chloro-2-((5-cyanopyridine-3-)methox y)benzyl) pyrrolidine-2-carboxamide [II-4]” gave a pIC50 (hPD-1/hPD-L1 interaction) of 7.00 to 8.00.

For “(4-((3′-(3-(4-(((carboxymethyl)amino)methyl)-1H-1,2,3-triazol-1-)propoxy)-2, 2′-dichloro-[1,1′-biphenyl]-3-)methoxy)-5-chloro-2-((5-cyanopyridin-3-)methoxy)benzyl) glycine [II-17]”, the pIC50 (hPD-1/hPD-L1 interaction) was 6.00 to 7.00.

“N-(2-((4-((3′-(3-(4-(((2-acetylaminoethyl)amino) methyl)-1H-1,2,3-triazole-1-)propoxy)-2,2′-dimethyl-[1,1′-biphenyl]-3-)methoxy)-5-chloro-2-((5-cyanopyridine-3-)methoxy) benzyl)amino)ethyl)acetamide [II-3]” showed a pIC50 (hPD-1/hPD-L1 interaction) of 7.00 to 8.00 and a pKd (Fc-hPD-L1 protein) of 7.00 to 10.00.

From patent publication US20240043392A1, “NOVEL BIPHENYL DERIVATIVE AND PREPARATION METHOD AND PHARMACEUTICAL USE THEREOF” (XI'AN XINTON PHARMACEUTCAL RESEARCH CO., LTD., priority 2021, published 2024)
